Experimental data as given in patent US12246095B2, “Oral dosage forms comprising a hops extract” (The New Zealand Institute for Plant and Food Research …, priority 2018, dated 2025).
In brackets after ≈: the same amount, converted by molar mass.

System: Hutu80 enteroendocrine cells
Test: Intracellular calcium in Hutu80 enteroendocrine cells as marker of Tas2R activation
Assay type: cell-based, human
Details: for EC 50: Hutu-80, change in intracellular calcium at 5 min, doses 200 to 0.2 μM, Pacific Gem extract and purified acids
Description: The capacity for hops extracts to activate bitter taste receptors was assessed using intracellular calcium concentrations [Ca2+]i as a marker of both Tas2R activation and appetite suppressing hormone release. A screening assay was carried out to compare the effects of high alpha acid and low alpha acid hops extracts on intracellular calcium in Hutu80 enteroendocrine cells. The acid composition of the high alpha acid hops was alpha acid (13.9%), beta acid (7.4%). The acid composition of the low alpha acid hops was alpha acid (2.7%) beta acid (5.0%).
An EC50 dose response showing the relative change in intracellular calcium in Hutu80 enteroendocrine cells at 5 min following the addition of either a high alpha acid (Pacific Gem, 13.9%) or low alpha acid (Wai-iti, 2.7%) hops extract is shown in FIG. 1 and Table 1.
Activation of human TAS2Rs receptors was measured by monitoring variations in intracellular Ca^2+ concentrations ([Ca^2+]i) using a Flurostar Omega (BMG LABTECH, Germany) (excitation 485 nm/emission 520 nm).
Hutu-80 cells (Cat #HTB-40, ATCC Manassas, Virginia) were seeded in supplemented MEM (Cat #11095-080, Thermo Fisher, Walthan, Massachusetts) into Poly-Lysin-coated 96-well black wall, clear bottom plates (Cat #356640, Corning Inc. New York) at a density of 3.5×10^5 cells/ml, 100 μl/wel, cultured overnight and then loaded with the Ca^2+-sensitive fluorescent dye Fluo 4-AM (Cat #F14201, Thermo Fisher, Walthan, Massachusetts), following suppliers guidelines. […]
Compounds to test were prepared in DMSO (Cat #D8418, Sigma, St. Louis, Missouri) and transferred onto the cells immediately prior to commencing of the assay measurements. To obtain a baseline, fluorescence signals (excitation 485 nm/emission 520 nm) were measured immediately before the addition of compounds on the cells.
The change in intracellular calcium in Hutu80 enteroendocrine cells was measured at 5 min following the addition of purified hops acids at doses of 200, 63.2, 20, 6.32, 2, 0.632, 0.2 and 0 μM.

Row | EC 50 | SMILES | stimulating bitter taste receptor (Tas2R) signalling in human enteroendocrine cells (Hutu80, intracellular calcium)
1 | 12.72 µg/mL (≈ 31.8 µM) | CC(C)=CCC1=C(O)C(C(=O)C(C)C)=C(O)C(CC=C(C)C)(CC=C(C)C)C1=O [Colupulone, colupulone] | –
2 | 1.153 µg/mL (≈ 3.31 µM) | CC(C)=CCC1=C(O)C(O)(CC=C(C)C)C(=O)C(C(=O)C(C)C)=C1O (stereo not drawn) [Cohumulone, cohumulone] | activity at the lowest concentration
